Where a chain is given by its changes, count along the chain named.
How the values were obtained:
[1] = test system: leukemia cell that express either wild type FLT3 or FLT3-ITD mutations; conditions: cells expressing wild type FLT3 or FLT3-ITD mutations; cited from earlier work
BaF3_FLT3_ITD/F691L = target: T1, BaF3_FLT3_ITD/F691L (Homo sapiens, UniProt P36888, F691L, cells depend on it, form not given); experiment: Engineered BaF3 cell growth assay, FLT3 ITD/F691L; type: cell-based, murine; conditions: three day growth assay in the absence of IL3
T1 sequence (P36888 with tags, fused parts or gaps INS600HVDFREYEYD/F691L): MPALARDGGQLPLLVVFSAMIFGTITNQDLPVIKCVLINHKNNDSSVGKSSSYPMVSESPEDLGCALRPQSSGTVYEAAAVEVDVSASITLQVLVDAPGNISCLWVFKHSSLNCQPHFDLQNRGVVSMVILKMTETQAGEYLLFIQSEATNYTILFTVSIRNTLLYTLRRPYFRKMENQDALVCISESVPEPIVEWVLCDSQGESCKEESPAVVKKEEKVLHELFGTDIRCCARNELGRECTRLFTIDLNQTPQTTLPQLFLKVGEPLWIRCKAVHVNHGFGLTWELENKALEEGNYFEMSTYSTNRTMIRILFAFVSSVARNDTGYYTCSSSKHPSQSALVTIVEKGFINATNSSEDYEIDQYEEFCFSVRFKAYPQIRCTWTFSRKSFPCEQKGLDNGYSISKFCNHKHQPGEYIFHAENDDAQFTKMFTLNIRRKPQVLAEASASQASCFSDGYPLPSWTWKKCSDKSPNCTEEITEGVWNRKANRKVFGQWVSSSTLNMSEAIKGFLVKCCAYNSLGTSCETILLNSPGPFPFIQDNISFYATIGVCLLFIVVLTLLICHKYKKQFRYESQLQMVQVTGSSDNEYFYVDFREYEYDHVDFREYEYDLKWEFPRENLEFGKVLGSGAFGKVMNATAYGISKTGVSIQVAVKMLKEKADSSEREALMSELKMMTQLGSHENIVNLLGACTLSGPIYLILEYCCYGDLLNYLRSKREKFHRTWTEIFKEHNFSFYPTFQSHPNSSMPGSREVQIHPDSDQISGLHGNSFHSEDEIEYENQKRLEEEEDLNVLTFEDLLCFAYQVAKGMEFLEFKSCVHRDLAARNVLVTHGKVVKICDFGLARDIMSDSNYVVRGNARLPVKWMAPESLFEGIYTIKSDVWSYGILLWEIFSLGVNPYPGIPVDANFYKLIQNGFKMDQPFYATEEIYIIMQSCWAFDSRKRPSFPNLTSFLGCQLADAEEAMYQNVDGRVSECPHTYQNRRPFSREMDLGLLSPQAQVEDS
Source text: The FLT3 inhibitors may be assessed using the MOLM-14, Acute Myeloid Leukemia cell line that endogenously expresses FLT3 ITD or derivatives of the human FLT3 AML cell line which acquired the D835Y (activation loop) of F691L (gatekeeper) mutation after selection in escalating doses of the FLT3 Inhibitor AC220. FLT3 inhibitors may also be assessed using cells that are engineered to express mutant FLT3. For engineered cells, murine Ba/F3 cells were transfected with full-length FLT3 ITD/D835Y mutations. The parental BA/F3 cells are dependent upon Interleukin-3 (IL-3) for survival, and introduction of the FLT3 constructs rendered these cells dependent upon FLT3 kinase activity when cultured in the absences of IL-3. Engineered BA/F3 cell growth assays can be performed in either the […] of IL-3, to assess the compound inhibition of FLT3 or to detect the presence of off-target activity, respectively. Inhibitors of FLT3 kinase activity reduce or eliminate the FLT3 oncogenic signaling, resulting in reduced cell proliferation. This inhibition is measured as a function of compound concentration to assess IC50 values.
Cells were seeded at 1×10^4 cells per well of a 96 well cell culture plate in 50 μl of cell culture medium. Compounds were dissolved in DMSO, typically at a concentration of 0.5 mM and were serially diluted 1:3 for a total of eight points and added to the cells to final concentrations of […], 0.0041, 0.0014 and 0.00046 μM in 100 μl cell culture medium (final concentration 0.2% DMSO). […] The cells were incubated at 37° C., 5% CO2 for three days. CellTiter-Glo Buffer (Promega Cell Viability Assay catalog #G7573) and substrate were equilibrated to room temperature, and enzyme/substrate Recombinant Firefly Luciferase/Beetle Luciferin was reconstituted. […] The plates were read on a Tecan M1000 using Luminescence protocol modified to read 0.1 s per well. The luminescence reading assesses the ATP content, which correlates directly with cell number such that the reading as a function of compound concentration was used to determine the IC50 value. […]

BA/F3-FLT3-ITD + D835Y = target: T2, BA/F3-FLT3-ITD + D835Y (Homo sapiens, UniProt P36888, D835Y, cells depend on it, form not given); experiment: Engineered BA/F3 cell growth assay, FLT3 ITD/D835Y; type: cell-based, murine; conditions: three day growth assay in the absence of IL3; read-out: BaF3_FLT3_ITD/D835Y
T2 sequence (P36888 with tags, fused parts or gaps INS600HVDFREYEYD/D835Y): T1 sequence (P36888 with tags, fused parts or gaps INS600HVDFREYEYD/F691L) with L701F, D845Y
How it was run: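 IC50 derived from CellTiter-Glo ATP luminescence after 3 days at 37 °C, 5% CO2, over eight 1:3 dilutions from 1 μM (0.2% DMSO final). Cells: IL-3-independent murine Ba/F3 expressing full-length FLT3 ITD/D835Y, 1×10^4 per well.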

[2] = test system: quizartinib resistance-causing mutants; conditions: FLT3-ITD KD mutants, in addition to other mutant isoforms; cited from earlier work

| GI50 (BaF3_FLT3_ITD/F691L) [nM] | GI50 (BA/F3-FLT3-ITD + D835Y) [nM] | Structure (SMILES) | growth of leukemia cells [1] | activity against identified quizartinib resistance-causing mutants [2] |
| --- | --- | --- | --- | --- |
| – | – | C=CCNC1=C2C[C@@H](C)C[C@H](OC)[C@H](O)[C@@H](C)/C=C(\C)[C@H](OC(N)=O)[C@@H](OC)/C=C\C=C(/C)C(=O)NC(=CC1=O)C2=O [17″AAG, 17AAG] | inhibited | – |
| 0.313 | 0.108 | Cn1cc(Nc2ncc(-c3ccc(CC(=O)Nc4ccnc(C(F)(F)F)c4)cc3)cn2)cn1 [drawing 325] | – | – |
| 1.54 | 0.462 | Cn1cc(Nc2ncc(-c3ccc(CC(=O)Nc4cccc(C(F)(F)F)c4)cc3)cn2)cn1 [drawing 326] | – | – |
| 0.434 | 0.444 | Cn1cc(Nc2ncc(-c3ccc(CC(=O)Nc4ccc(C(C)(C)C)nc4)cc3)cn2)cn1 [drawing 327] | – | – |
| – | – | CNC(=O)c1cc(Oc2ccc(NC(=O)Nc3ccc(Cl)c(C(F)(F)F)c3)cc2)ccn1 [sorafenib] | – | ineffective |

— patent US10160747B2, “Compounds and methods for kinase modulation, and indications therefor” (Plexxikon Inc., priority 2016, dated 2018)
